Measured values: US20110319424A1, “NAPHTHYRIDIN-2(1H) -ONE COMPOUNDS USEFUL AS ANTIBACTERIALS” (priority 2008, published 2011)

Tested on: Mycobacterium tuberculosis H37Rv
Experiment: Mycobacterium tuberculosis H37Rv inhibition assay (MIC, resazurin fluorescence)
Assay type: cell-based
Conditions: ATCC 25618 / H37Rv, 144 h, H37Rv strain (ATCC25618), Middlebrook 7H9, six days at 37° C. then resazurin 48 hours

Row | SMILES | MIC
1 | O=c1ccc2ncc(F)cc2n1CCN1CCC(NCc2ccc(Br)cn2)CC1 [Example 1, 1-[2-(4-{[(5-Bromo-2-pyridinyl)methyl]amino}-1-piperidinyl)ethyl]-7-fluoro-1,5-naphthyridin-2(1H)-one] | ≤ 1 µg/mL
2 | Cl.Cl.O=c1ccc2ncc(F)cc2n1CCN1CCC(NCc2ccc(Br)cn2)CC1 [Example 1b, 1-[2-(4-{[(5-Bromo-2-pyridinyl)methyl]amino}-1-piperidinyl)ethyl]-7-fluoro-1,5-napthyridin-2(1H)-one dihydrochloride] | ≤ 1 µg/mL
3 | COc1cnc2ccc(=O)n(CCN3CCC(NCc4cnc(Br)s4)CC3)c2c1 [Example 2, 1-[2-(4-{[(2-Bromo-1,3-thiazol-5-yl)methyl]amino}-1-piperidinyl)ethyl]-7-(methyloxy)-1,5-naphthyridin-2(1H)-one] | ≤ 1 µg/mL
4 | COc1cnc2ccc(=O)n(CCN3CCC(NCc4cnc(Br)s4)CC3)c2c1.Cl [Example 2b, 1-[2-(4-{[(2-Bromo-1,3-thiazol-5-yl)methyl]amino}-1-piperidinyl)ethyl]-7-(methyloxy)-1,5-naphthyridin-2(1H)-one hydrochloride] | ≤ 1 µg/mL
5 | O=c1ccc2ncc(F)cc2n1CCN1CCC(NCc2ccc(Cl)c(Cl)c2)CC1 [Example 3, 1-[2-(4-{[(3,4-Dichlorophenyl)methyl]amino}-1-piperidinyl)ethyl]-7-fluoro-1,5-naphthyridin-2(1H)-one] | ≤ 1 µg/mL
6 | Cl.Cl.O=c1ccc2ncc(F)cc2n1CCN1CCC(NCc2ccc(Cl)c(Cl)c2)CC1 [Example 3b, 1-[2-(4-{[(3,4-Dichlorophenyl)methyl]amino}-1-piperidinyl)ethyl]-7-fluoro-1,5-naphthyridin-2(1H)-one dihydrochloride] | ≤ 1 µg/mL
7 | COc1cnc2ccc(=O)n(CCN3CCC(NCc4ccc(C(F)(F)F)nc4)CC3)c2c1 [Example 4, 7-(Methyloxy)-1-{2-[4-({[6-(trifluoromethyl)-3-pyridinyl]methyl}amino)-1-piperidinyl]ethyl}-1,5-naphthyridin-2(1H)-one] | ≤ 1 µg/mL
8 | COc1cnc2ccc(=O)n(CCN3CCC(NCc4ccc(C(F)(F)F)nc4)CC3)c2c1.Cl [Example 4b, 7-(Methyloxy)-1-{2-[4-({[6-(trifluoromethyl)-3-pyridinyl]methyl}amino)-1-piperidinyl]ethyl}-1,5-naphthyridin-2(1H)-one hydrochloride] | ≤ 1 µg/mL
9 | COc1cnc2ccc(=O)n(CCN3CCC(NCc4nc(C)c(C)s4)CC3)c2c1 [Example 6, 1-[2-(4-{[(4,5-Dimethyl-1,3-thiazol-2-yl)methyl]amino}-1-piperidinyl)ethyl]-7-(methyloxy)-1,5-naphthyridin-2(1H)-one] | ≤ 2.4 µg/mL
10 | O=c1ccc2ncccc2n1CCN1CCC(NCc2ccc(Cl)c(Cl)c2)CC1 [Example 8, 1-[2-(4-{[(3,4-Dichlorophenyl)methyl]amino}-1-piperidinyl)ethyl]-1,5-naphthyridin-2(1H)-one] | ≤ 1 µg/mL
11 | Cl.Cl.O=c1ccc2ncccc2n1CCN1CCC(NCc2ccc(Cl)c(Cl)c2)CC1 [Example 8b, 1-[2-(4-{[(3,4-Dichlorophenyl)methyl]amino}-1-piperidinyl)ethyl]-1,5-naphthyridin-2(1H)-one dihydrochloride] | ≤ 1 µg/mL
12 | O=c1ccc2ncccc2n1CCN1CCC(NCc2ccc(Br)nc2)CC1 [Example 9, 1-[2-(4-{[(6-Bromo-3-pyridinyl)methyl]amino}-1-piperidinyl)ethyl]-1,5-naphthyridin-2(1H)-one] | ≤ 2.4 µg/mL
13 | COc1cnc2ccc(=O)n(CCN3CCC(NCc4ccc(Cl)c(Cl)c4)CC3)c2c1 [Example 11, 1-[2-(4-{[(3,4-Dichlorophenyl)methyl]amino}-1-piperidinyl)ethyl]-7-(methyloxy)-1,5-naphthyridin-2(1H)-one] | ≤ 1 µg/mL
14 | COc1cnc2ccc(=O)n(CCN3CCC(NCc4ccc(Cl)c(Cl)c4)CC3)c2c1.Cl [Example 11b, 1-[2-(4-{[(3,4-Dichlorophenyl)methyl]amino}-1-piperidinyl)ethyl]-7-(methyloxy)-1,5-naphthyridin-2(1H)-one hydrochloride] | ≤ 1 µg/mL
15 | COc1cnc2ccc(=O)n(CCN3CCC(NCc4ccc(Cl)c(Cl)c4)CC3)c2c1.Cl.Cl [Example 11c, 1-[2-(4-{[(3,4-Dichlorophenyl)methyl]amino}-1-piperidinyl)ethyl]-7-(methyloxy)-1,5-naphthyridin-2(1H)-one dihvdrochloride] | ≤ 1 µg/mL
16 | COc1cnc2ccc(=O)n(CCN3CCC(NCc4ccc(Cl)cc4)CC3)c2c1 [Example 12, 1-[2-(4-{[(4-Chlorophenyl)methyl]amino}-1-piperidinyl)ethyl]-7-(methyloxy)-1,5-naphthyridin-2(1H)-one] | ≤ 1 µg/mL
17 | COc1cnc2ccc(=O)n(CCN3CCC(NCc4ccc(Cl)cc4)CC3)c2c1.Cl.Cl [Example 12b, 1-[2-(4-{[(4-Chlorophenyl)methyl]amino}-1-piperidinyl)ethyl]-7-(methyloxy)-1,5-naphthyridin-2(1H)-one dihydrochloride] | ≤ 1 µg/mL
18 | COc1cnc2ccc(=O)n(CCN3CCC(NCc4ccc(Cl)cc4)CC3)c2c1.Cl [Example 12c, 1-[2-(4-{[(4-Chlorophenyl)methyl]amino}-1-piperidinyl)ethyl]-7-(methyloxy)-1,5-naphthyridin-2(1H)-one hydrochloride] | ≤ 1 µg/mL
19 | O=c1ccc2ncc(F)cc2n1CCN1CCC(NCc2ccc(Br)o2)CC1 [Example 34, 1-[2-(4-{[(5-bromo-2-furanyl)methyl]amino}-1-piperidinyl)ethyl]-7-fluoro-1,5-naphthyridin-2(1H)-one] | ≤ 2.4 µg/mL
20 | O=c1ccc2ncc(F)cc2n1CCN1CCC(NCc2cc(Cl)ccc2Cl)CC1 [Example 38, 1-[2-(4-{[(2,5-dichlorophenyl)methyl]amino}-1-piperidinyl)ethyl]-7-fluoro-1,5-naphthyridin-2(1H)-one] | ≤ 2.4 µg/mL
21 | O=c1ccc2ncccc2n1CCN1CCC(NCc2ccc(Br)s2)CC1 [Example 48, 1-[2-(4-{[(5-bromo-2-thienyl)methyl]amino}-1-piperidinyl)ethyl]-1,5-naphthyridin-2(1H)-one] | ≤ 2.4 µg/mL
22 | O=c1ccc2ncccc2n1CCN1CCC(NCc2cnc(Br)s2)CC1 [Example 49, 1-[2-(4-{[(2-bromo-1,3-thiazol-5-yl)methyl]amino}-1-piperidinyl)ethyl]-1,5-naphthyridin-2(1H)-one] | ≤ 2.4 µg/mL
23 | COc1ccc(CNC2CCN(CCn3c(=O)ccc4ncccc43)CC2)cc1Cl [Example 51, 1-{2-[4-({[3-chloro-4-(methyloxy)phenyl]methyl}amino)-1-piperidinyl]ethyl}-1,5-naphthyridin-2(1H)-one] | ≤ 2.4 µg/mL
24 | COc1cnc2ccc(=O)n(CCN3CCC(NCc4nc(Br)cs4)CC3)c2c1 [Example 64, 1-[2-(4-{[(4-bromo-1,3-thiazol-2-yl)methyl]amino}-1-piperidinyl)ethyl]-7-(methyloxy)-1,5-naphthyridin-2(1H)-one] | ≤ 2.4 µg/mL
25 | COc1cnc2ccc(=O)n(CCN3CCC(NCc4ccc(F)c(C)n4)CC3)c2c1 [Example 68, 1-[2-(4-{[(5-fluoro-6-methyl-2-pyridinyl)methyl]amino}-1-piperidinyl)ethyl]-7-(methyloxy)-1,5-naphthyridin-2(1H)-one] | ≤ 2.4 µg/mL
26 | O=c1ccc2ncccc2n1CCN1CCC(NCc2cc(Br)cs2)CC1 [Example 81, 1-[2-(4-{[(4-bromo-2-thienyl)methyl]amino}-1-piperidinyl)ethyl]-1,5-naphthyridin-2(1H)-one] | ≤ 2.4 µg/mL
